In ChEMBL document CHEMBL4483862, “Open-source discovery of chemical leads for next-generation chemoprotective antimalarials” (2018):

Test system: Plasmodium berghei
Assay: Luciferase/luciferin-expressing antifolate-resistant parasites were used to infect a culture of HepG2 cells that were pre-incubated with compounds. Infected hepatocytes emit light due to the luciferase reaction. Assay results are presented as the percent inhibition of light emission compared to control. […]
Format: functional
Details: sporozoite; for IC90: read-out: LUCIFERASE INFECTION ASSAY - IC90

| Structure (SMILES) | IC90 | other results |
| --- | --- | --- |
| Cn1c(N)c(C(=O)COC(=O)C2(c3ccc(Cl)cc3)CCCC2)c(=O)n(C)c1=O | 6.91 µM | IC50 (PBLUC_HILL_SLOPE 2.17, PBLUC_R_SQUARED 0.685, read-out: LUCIFERASE INFECTION ASSAY - IC50): 2.5 µM |
| Cc1ccc(S(=O)(=O)/N=C2\C=C(NS(=O)(=O)c3ccc(C)cc3)C(=O)c3ccccc32)cc1 | > 10 µM | IC50 (PBLUC_HILL_SLOPE 2.17, PBLUC_R_SQUARED 0.652, read-out: LUCIFERASE INFECTION ASSAY - IC50): 5.51 µM |
| CCCCC1(Cc2ccccc2)C(=O)c2cccc3c4ccccc4n(c23)C1=O (stereo not drawn) | > 8.65 µM | IC50 (PBLUC_HILL_SLOPE 2.19, PBLUC_R_SQUARED 0.0283, read-out: LUCIFERASE INFECTION ASSAY - IC50): 8.01 µM |
| CC(=O)Nc1cccc(-c2cn3c(-c4ccc5ncccc5c4)cnc3cn2)c1 | > 8.7 µM | IC50 (PBLUC_HILL_SLOPE 2.19, PBLUC_R_SQUARED 0.526, read-out: LUCIFERASE INFECTION ASSAY - IC50): 5.14 µM |
| COc1ccc(C)cc1NC(=O)C(OC(=O)c1cccn1C)c1ccccc1 (stereo not drawn) | > 10 µM | IC50 (PBLUC_HILL_SLOPE 2.21, PBLUC_R_SQUARED 0.0841, read-out: LUCIFERASE INFECTION ASSAY - IC50): 8.87 µM |
| COc1ccc(NC2=NC(=O)/C(=C/c3cc(C)n(-c4cccc(Cl)c4Cl)c3C)S2)cc1 | 0.771 µM | IC50 (PBLUC_HILL_SLOPE 2.19, 1.56, PBLUC_R_SQUARED 0.711, 0.979, read-out: LUCIFERASE INFECTION ASSAY - IC50): 0.238 µM |
| CC(=O)Nc1ccc(OCC(=O)NC(c2ccc(C)cc2)c2cccs2)cc1 (stereo not drawn) | > 10 µM | IC50 (PBLUC_HILL_SLOPE 2.22, PBLUC_R_SQUARED 0.0478, read-out: LUCIFERASE INFECTION ASSAY - IC50): > 10 µM |
| COc1ccc(/C=C2\c3ccccc3Cn3c2nc(=O)c2c4c(sc23)CCCC4)cc1 | 8.28 µM | IC50 (PBLUC_HILL_SLOPE 2.2, PBLUC_R_SQUARED 0.219, read-out: LUCIFERASE INFECTION ASSAY - IC50): 3.06 µM |
| CCCc1oc2c(cc(NS(=O)(=O)c3ccc(Cl)cc3)c3ccccc32)c1C(=O)OCC | > 10 µM | IC50 (PBLUC_HILL_SLOPE 2.19, PBLUC_R_SQUARED 0.549, read-out: LUCIFERASE INFECTION ASSAY - IC50): 5.77 µM |
| CC1CCc2sc(C(=O)N(C)Cc3nc(=O)c4ccccc4[nH]3)cc2C1 (stereo not drawn) | 6.74 µM | IC50 (PBLUC_HILL_SLOPE 2.24, PBLUC_R_SQUARED 0.489, read-out: LUCIFERASE INFECTION ASSAY - IC50): 2.52 µM |
| Cc1ccc(C)c(S(=O)(=O)N2CCN(C(=O)c3[nH]nc4ccccc34)CC2)c1 | 1.72 µM | IC50 (PBLUC_HILL_SLOPE 2.18, PBLUC_R_SQUARED 0.737, read-out: LUCIFERASE INFECTION ASSAY - IC50): 0.627 µM |
| CCOC(=O)NC(=O)/C(C#N)=N/Nc1ccccc1 | 0.557 µM | IC50 (PBLUC_HILL_SLOPE 2.22, PBLUC_R_SQUARED 0.599, read-out: LUCIFERASE INFECTION ASSAY - IC50): 0.207 µM |
| c1ccc(NCc2ccc(-c3cn4c(-c5cccnc5)cnc4cn3)cc2)cc1 | 7.31 µM | IC50 (PBLUC_HILL_SLOPE 2.17, PBLUC_R_SQUARED 0.86, read-out: LUCIFERASE INFECTION ASSAY - IC50): 2.66 µM |
| COCCNc1nc2cnc(-c3cccc(Oc4ccccc4)c3)cc2n1C | > 10 µM | IC50 (PBLUC_HILL_SLOPE 2.22, PBLUC_R_SQUARED 0.147, read-out: LUCIFERASE INFECTION ASSAY - IC50): 6.81 µM |
| Cc1cc(NC(=O)C(C)Sc2ncnc3c2oc2ccccc23)no1 (stereo not drawn) | > 10 µM | IC50 (PBLUC_HILL_SLOPE 2.18, PBLUC_R_SQUARED 0.0347, read-out: LUCIFERASE INFECTION ASSAY - IC50): > 10 µM |
| O=C(COc1ccc(C23CC4CC(CC(C4)C2)C3)cc1)N1CCCC1 | 2.75 µM | IC50 (PBLUC_HILL_SLOPE 2.17, PBLUC_R_SQUARED 0.715, read-out: LUCIFERASE INFECTION ASSAY - IC50): 1 µM |
| Cc1cc([N+](=O)[O-])cc(S(=O)(=O)N(Cc2ccc(C(=O)NC3CC3)cc2)C2CC2)c1C | 2.18 µM | IC50 (PBLUC_HILL_SLOPE 2.2, PBLUC_R_SQUARED 0.808, read-out: LUCIFERASE INFECTION ASSAY - IC50): 0.801 µM |
| CC(C)c1cc(NCCCN2CCOCC2)n2ncc(-c3ccccc3)c2n1 | > 8.7 µM | IC50 (PBLUC_HILL_SLOPE 2.21, PBLUC_R_SQUARED 0.515, read-out: LUCIFERASE INFECTION ASSAY - IC50): 4.34 µM |
| COc1ccc(C2CCCN2Cc2cc(=O)oc3cc(C)c(Cl)cc23)c(OC)c1 (stereo not drawn) | > 10 µM | IC50 (PBLUC_HILL_SLOPE 2.17, PBLUC_R_SQUARED 0.455, read-out: LUCIFERASE INFECTION ASSAY - IC50): 6.43 µM |
| CC(C)c1ccc(NC(=O)[C@@H]2Cc3ccccc3CN2C(=O)OC(C)(C)C)cc1 | > 8.36 µM | IC50 (PBLUC_HILL_SLOPE 2.17, PBLUC_R_SQUARED 0.544, read-out: LUCIFERASE INFECTION ASSAY - IC50): 3.19 µM |

| Structure (SMILES) | IC90 | other results |
| --- | --- | --- |
| Nc1nc(Nc2cc(Cl)cc(Cl)c2)c2[nH]cnc2n1 | 8.62 µM | IC50 (PBLUC_HILL_SLOPE 2.21, PBLUC_R_SQUARED 0.753, read-out: LUCIFERASE INFECTION ASSAY - IC50): 3.18 µM |
| O=C(c1ccccc1)N1[C@@H]2CC[C@@H](C2)[C@H]1c1nc2cccc(OCc3ccccc3)c2[nH]1 | > 10 µM | IC50 (PBLUC_HILL_SLOPE 2.24, PBLUC_R_SQUARED 0.373, read-out: LUCIFERASE INFECTION ASSAY - IC50): > 10 µM |
| CN1CCN(c2ccc(-c3cn4c(-c5ccc(CO)cc5)cnc4cn3)cc2)CC1 | > 8.26 µM | IC50 (PBLUC_HILL_SLOPE 2.22, PBLUC_R_SQUARED 0.0391, read-out: LUCIFERASE INFECTION ASSAY - IC50): > 8.26 µM |
| O=C1NC2(CCOc3ccccc32)C(=O)N1CC(=O)N1N=C(c2ccc(Cl)cc2)CC1c1ccco1 (stereo not drawn) | > 10 µM | IC50 (PBLUC_HILL_SLOPE 2.24, PBLUC_R_SQUARED 0.678, read-out: LUCIFERASE INFECTION ASSAY - IC50): 5.4 µM |
| CN1CCN(c2ccc(-c3cn4c(-c5ccc6c(c5)OCO6)cnc4cn3)cn2)CC1 | > 7.96 µM | IC50 (PBLUC_HILL_SLOPE 2.2, PBLUC_R_SQUARED 0.54, read-out: LUCIFERASE INFECTION ASSAY - IC50): 6.26 µM |
| CC(C)CN1C(=O)N(CCCc2cccnc2)C(=O)C12CCN(C(C)CCc1ccccc1)CC2 (stereo not drawn) | > 6.92 µM | IC50 (PBLUC_HILL_SLOPE 2.19, PBLUC_R_SQUARED 0.623, read-out: LUCIFERASE INFECTION ASSAY - IC50): 3.61 µM |
| CCOc1cc(/C=C/c2nc3cc(Cl)ccc3o2)ccc1OCC(=O)N(C(C)C)C(C)C | > 10 µM | IC50 (PBLUC_HILL_SLOPE 2.25, PBLUC_R_SQUARED 0.0279, read-out: LUCIFERASE INFECTION ASSAY - IC50): > 10 µM |
| CCCn1c(N)c(C(=O)CN(Cc2ccco2)Cc2cccs2)c(=O)[nH]c1=O | > 10 µM | IC50 (PBLUC_HILL_SLOPE 2.23, PBLUC_R_SQUARED 0.528, read-out: LUCIFERASE INFECTION ASSAY - IC50): 5.46 µM |
| CNC(=O)c1ccc(CN(C2CC2)S(=O)(=O)c2ccc(C)cc2C)cc1 | 8.11 µM | IC50 (PBLUC_HILL_SLOPE 2.19, PBLUC_R_SQUARED 0.255, read-out: LUCIFERASE INFECTION ASSAY - IC50): 2.97 µM |
| CC(CN1CCC2(CC1)C(=O)N(Cc1ccccn1)C(=O)N2Cc1ccccc1)c1ccccc1 (stereo not drawn) | > 7.04 µM | IC50 (PBLUC_HILL_SLOPE 2.23, PBLUC_R_SQUARED 0.302, read-out: LUCIFERASE INFECTION ASSAY - IC50): > 7.04 µM |
| O=C(/C=C/c1cn(Cc2ccccc2)nc1-c1ccccc1)N1CCN(c2ccncc2)CC1 | 6.13 µM | IC50 (PBLUC_HILL_SLOPE 2.17, PBLUC_R_SQUARED 0.608, read-out: LUCIFERASE INFECTION ASSAY - IC50): 2.22 µM |
| O=C(COc1ccccc1)Nc1nc2ccccn2c1C(=O)NC1CCCC1 | > 8.72 µM | IC50 (PBLUC_HILL_SLOPE 2.22, PBLUC_R_SQUARED 0.0336, read-out: LUCIFERASE INFECTION ASSAY - IC50): 7.18 µM |
| CCCCNC1=C(NS(=O)(=O)c2ccc(NC(C)=O)cc2)C(=O)c2ccccc2C1=O | > 10 µM | IC50 (PBLUC_HILL_SLOPE 2.17, PBLUC_R_SQUARED 0.634, read-out: LUCIFERASE INFECTION ASSAY - IC50): 3.66 µM |
| C=CCNC(=O)NC(=O)COC(=O)c1c2c(nc3ccccc13)/C(=C/c1cccs1)CCC2 | > 10 µM | IC50 (PBLUC_HILL_SLOPE 2.17, PBLUC_R_SQUARED 0.466, read-out: LUCIFERASE INFECTION ASSAY - IC50): 7.2 µM |
| COc1ccc2c(-c3ccccc3)cc(SCc3nnc(C)o3)nc2c1 | > 10 µM | IC50 (PBLUC_HILL_SLOPE 2.18, PBLUC_R_SQUARED 0.122, read-out: LUCIFERASE INFECTION ASSAY - IC50): 6.06 µM |
| c1ccc(Oc2cccc(-c3ccc4nnc(-c5ccc6nccnc6c5)n4c3)c2)cc1 | > 10 µM | IC50 (PBLUC_HILL_SLOPE 2.21, PBLUC_R_SQUARED 0.734, read-out: LUCIFERASE INFECTION ASSAY - IC50): 4.56 µM |
| Cc1cc(C(=O)CN2CCN(C)CC2)c(C)n1C(c1ccccc1)c1ccccc1 | > 10 µM | IC50 (PBLUC_HILL_SLOPE 2.18, PBLUC_R_SQUARED 0.339, read-out: LUCIFERASE INFECTION ASSAY - IC50): 6.77 µM |
| C=CCn1c[n+](C2=C(NS(=O)(=O)c3ccc(C)cc3)C(=O)c3ccccc3C2=O)c2ccccc21 | 1.26 µM | IC50 (PBLUC_HILL_SLOPE 2.18, PBLUC_R_SQUARED 0.79, read-out: LUCIFERASE INFECTION ASSAY - IC50): 0.462 µM |
| CCCCN1C(=O)C(=O)c2cc(Br)cc(C)c21 | > 10 µM | IC50 (PBLUC_HILL_SLOPE 2.24, PBLUC_R_SQUARED 0.667, read-out: LUCIFERASE INFECTION ASSAY - IC50): 4.61 µM |
